Reference: patent US11440947B2, “Peptides and combination of peptides for use in immunotherapy against various tumors” (Immatics Biotechnologies GmbH, priority 2015, dated 2022)

Experiments:
CD8+ T cells = test: In vitro immunogenicity: in vitro T-cell priming with aAPCs loaded with peptide/MHC complexes and anti-CD28, pMHC multimer readout; format: cell-based, human; conditions: for Wells positive [%]: HLA-A*02 restricted peptides, percentage of positive wells among evaluable; for donors: percentage of positive donors
From the text: In order to obtain information regarding the immunogenicity of the TUMAPs of the present invention, the inventors performed investigations using an in vitro T-cell priming assay based on repeated stimulations of CD8+ T cells with artificial antigen presenting cells (aAPCs) loaded with peptide/MHC complexes and anti-CD28 antibody.
In order to perform in vitro stimulations by artificial antigen presenting cells loaded with peptide-MHC complex (pMHC) and anti-CD28 antibody, the inventors first isolated CD8+ T cells from fresh HLA-A*02 leukapheresis products via positive selection using CD8 microbeads (Miltenyi Biotec, Bergisch-Gladbach, Germany) of healthy donors obtained from the University clinics Mannheim, Germany, after informed consent. PBMCs and isolated CD8+ lymphocytes were incubated in T-cell medium (TCM) until use consisting of RPMI-Glutamax (Invitrogen, Karlsruhe, Germany) supplemented with 10% heat inactivated human AB serum (PAN-Biotech, Aidenbach, Germany), 100 U/ml Penicillin/100 μg/ml Streptomycin (Cambrex, Cologne, Germany), 1 mM sodium pyruvate (CC Pro, Oberdorla, Germany), 20 μg/ml Gentamycin (Cambrex). 2.5 ng/ml IL-7 (PromoCell, Heidelberg, Germany) and 10 U/ml IL-2 (Novartis Pharma, Nürnberg, Germany) were also added to the TCM at this step. Generation of pMHC/anti-CD28 coated beads, T-cell stimulations and readout was performed in a highly defined in vitro system using four different pMHC molecules per stimulation condition and 8 different pMHC molecules per readout condition.
The purified co-stimulatory mouse IgG2a anti human CD28 Ab 9.3 (Jung et al., 1987) was chemically biotinylated using Sulfo-N-hydroxysuccinimidobiotin as recommended by the manufacturer (Perbio, Bonn, Germany). Beads used were 5.6 μm diameter streptavidin coated polystyrene particles (Bangs Laboratories, Illinois, USA).
pMHC used for positive and negative control stimulations were A*0201/MLA-001 (peptide […] (SEQ ID NO. 289) from modified Melan-A/MART-1) and A*0201/DDX5-001 ([…] from DDX5, SEQ ID NO. 290), respectively.
800.000 beads/200 μl were coated in 96-well plates in the presence of 4×12.5 ng different biotin-pMHC, washed and 600 ng biotin anti-CD28 were added subsequently in a volume of 200 μl. Stimulations were initiated in 96-well plates by co-incubating […] CD8+ T cells with 2×10^5 washed coated beads in 200 μl TCM supplemented with 5 ng/ml IL-12 (PromoCell) for 3 days at 37° C. Half of the medium was then exchanged by fresh TCM supplemented with 80 U/ml IL-2 and incubating was continued for 4 days at 37° C. This stimulation cycle was performed for a total of three times. For the pMHC multimer readout using 8 different pMHC molecules per condition, a two-dimensional combinatorial coding approach was used as previously described (Andersen et al., 2012) with minor modifications encompassing coupling to 5 different fluorochromes. Finally, multimeric analyses were performed by staining the cells with Live/dead near IR dye (Invitrogen, Karlsruhe, Germany), CD8-FITC antibody clone SK1 (BD, Heidelberg, Germany) and fluorescent pMHC multimers. For analysis, a BD LSRII SORP cytometer equipped with appropriate lasers and filters was used. Peptide specific cells were calculated as percentage of total CD8+ cells. Evaluation of multimeric analysis was done using the FlowJo software (Tree Star, Oreg., USA). In vitro priming of specific multimer+CD8+ lymphocytes was detected by comparing to negative control stimulations.
Exemplary flow cytometry results after TUMAP-specific multimer staining for 15 peptides of the invention are shown in FIGS. 3 and 6 together with corresponding negative controls.

HLA-A*02:01 = HLA-A*02:01 (Homo sapiens, UniProt P04439, D140Y/D185E/D98H/E176V/E277Q/G131W/G231S/I119V/I121R/I166T/I218V/L300P/L318F/N151K/N90K/P208A/P217A/Q86G/Q94H/R138H/R169H/T345S); test: MHC binding assay: UV-ligand exchange, ELISA on beta2m of stabilized MHC complexes (peptide exchange yield); conditions: binding to HLA-A*02:01, UV-ligand exchange, β2m ELISA
From the text: Candidate peptides for T cell based therapies according to the present invention were further tested for their MHC binding capacity (affinity). The individual peptide-MHC complexes were produced by UV-ligand exchange, where a UV-sensitive peptide is cleaved upon UV-irradiation, and exchanged with the peptide of interest as analyzed. Only peptide candidates that can effectively bind and stabilize the peptide-receptive MHC molecules prevent dissociation of the MHC complexes. To determine the yield of the exchange reaction, an ELISA was performed based on the detection of the light chain (β2m) of stabilized MHC complexes. The assay was performed as generally described in Rodenko et al. (Rodenko et al., 2006).
96 well MAXISorp plates (NUNC) were coated over night with 2 ug/ml streptavidin in PBS at room temperature, washed 4× and blocked for 1 h at 37° C. in 2% BSA containing blocking buffer. Refolded HLA-A*02:01/MLA-001 monomers served as standards, covering the range of 15-500 ng/ml. Peptide-MHC monomers of the UV-exchange reaction were diluted 100 fold in blocking buffer. Samples were incubated for 1 h at 37° C., washed four times, incubated with 2 ug/ml HRP conjugated anti-β2m for 1 h at 37° C., washed again and detected with TMB solution that is stopped with […]. Absorption was measured at 450 nm. Candidate peptides that show a high exchange yield (preferably higher than 50%, most preferred higher than 75%) are generally preferred for a generation and production of antibodies or fragments thereof, and/or T cell receptors or fragments thereof, as they show sufficient avidity to the MHC molecules and prevent dissociation of the MHC complexes.

[1] = CD8+ T cells of healthy HLA-A*02 donors, three stimulation cycles, multimer staining

| Substance | Wells positive [%] (CD8+ T cells) | further results |
| --- | --- | --- |
| 257 (KLIDHQGLYL; listed as Homo sapiens) [compound 257] | + (<20% = +) | – |
| 77 (ALYGNVQQV; listed as Homo sapiens) [compound 77] | + (<20% = +) | – |
| 84 (FLLEREQLL; listed as Homo sapiens) [compound 84] | – | Peptide exchange (MHC class I binding score, peptide exchange yield) (HLA-A*02:01): ++++ (>75% = ++++) |
| 27 (GLLGKVTSV; listed as Homo sapiens) [compound 27] | + (<20% = +) | – |
| 260 (ALNESLVEC; listed as Homo sapiens) [compound 260] | + (<20% = +) | – |
| 161 (NLLDENVCL; listed as Homo sapiens) [compound 161] | – | Peptide exchange (MHC class I binding score, peptide exchange yield) (HLA-A*02:01): ++++ (>75% = ++++) |
| 101 (SLLEVNEASSV; listed as Homo sapiens) [compound 101] | + (<20% = +) | – |
| 288 (SLYKGLLSV; listed as Homo sapiens) [compound 288] | – | donors (CD8+ T cells; [1]): ++++ (>= 70% = ++++) |
| 6 (FLNAIETAL; listed as Homo sapiens) [compound 6] | – | Peptide exchange (MHC class I binding score, peptide exchange yield) (HLA-A*02:01): ++++ (>75% = ++++) |
| 263 (SIIEYLPTL; listed as Homo sapiens) [compound 263] | + (<20% = +) | – |
| 264 (TLHDQVHLL; listed as Homo sapiens) [compound 264] | + (<20% = +) | – |
| 4 (VLFGELPAL; listed as Homo sapiens) [compound 4] | + (<20% = +) | – |
| 89 (SLAETIFIV; listed as Homo sapiens) [compound 89] | + (<20% = +) | – |
| 14 (YTFSGDVQL; listed as Homo sapiens) [compound 14] | + (<20% = +) | – |
| 34 (TLNTLDINL; listed as Homo sapiens) [compound 34] | ++++ (>=70% = ++++) | – |
| 287 (KIQEILTQV; listed as Homo sapiens) [compound 287] | – | donors (CD8+ T cells; [1]): +++ (50%-69%- +++); wells (CD8+ T cells; percentage of positive wells, CD8+ T cells of healthy HLA-A*02 donors, three stimulation cycles, multimer staining): + (<20% = +) |
| 9 (SLITGQDLLSV; listed as Homo sapiens) [compound 9] | + (<20% = +) | – |
| 39 (YLEDGFAYV; listed as Homo sapiens) [compound 39] | ++++ (>=70% = ++++) | – |
| 35 (VIIKGLEEI; listed as Homo sapiens) [compound 35] | + (<20% = +) | – |
| 234 (VLLNEILEQV; listed as Homo sapiens) [compound 234] | – | Peptide exchange (MHC class I binding score, peptide exchange yield) (HLA-A*02:01): ++++ (>75% = ++++) |

| Substance | Wells positive [%] (CD8+ T cells) | further results |
| --- | --- | --- |
| 121 (ALYVQAPTV; listed as Homo sapiens) [compound 121] | + (<20% = +) | – |
| 50 (ILLSVLHQL; listed as Homo sapiens) [compound 50] | + (<20% = +) | – |
| 254 (ALGDKFLLRV; listed as Homo sapiens) [compound 254] | + (<20% = +) | – |
| 1 (KLQEKIQEL; listed as Homo sapiens) [compound 1] | – | Peptide exchange (MHC class I binding score, peptide exchange yield) (HLA-A*02:01): ++++ (>75% = ++++) |
| 97 (KLFEKSTGL; listed as Homo sapiens) [compound 97] | + (<20% = +) | – |
| 267 (YLLDMPLWYL; listed as Homo sapiens) [compound 267] | + (<20% = +) | – |
| 92 (RLFEEVLGV; listed as Homo sapiens) [compound 92] | – | Peptide exchange (MHC class I binding score, peptide exchange yield) (HLA-A*02:01): ++++ (>75% = ++++) |
| 29 (KMISAIPTL; listed as Homo sapiens) [compound 29] | + (<20% = +) | – |
| 269 (GLLDCPIFL; listed as Homo sapiens) [compound 269] | – | Peptide exchange (MHC class I binding score, peptide exchange yield) (HLA-A*02:01): ++++ (>75% = ++++) |
| 242 (KLQEEIPVL; listed as Homo sapiens) [compound 242] | + (<20% = +) | – |
| 246 (ALAGIVTNV; listed as Homo sapiens) [compound 246] | + (<20% = +) | – |
| 157 (ILQDGQFLV; listed as Homo sapiens) [compound 157] | + (<20% = +) | – |
| 255 (FLMKNSDLYGA; listed as Homo sapiens) [compound 255] | + (<20% = +) | – |
| 102 (GLYPVTLVGV; listed as Homo sapiens) [compound 102] | + (<20% = +) | – |
| 178 (SLVSWQLLL; listed as Homo sapiens) [compound 178] | – | Peptide exchange (MHC class I binding score, peptide exchange yield) (HLA-A*02:01): ++++ (>75% = ++++) |
| 17 (GLLPSAESIKL; listed as Homo sapiens) [compound 17] | + (<20% = +) | Peptide exchange (MHC class I binding score, peptide exchange yield) (HLA-A*02:01): ++++ (>75% = ++++) |
| 206 (GLDAFRIFL; listed as Homo sapiens) [compound 206] | – | Peptide exchange (MHC class I binding score, peptide exchange yield) (HLA-A*02:01): ++++ (>75% = ++++) |
| 233 (SLFESLEYL; listed as Homo sapiens) [compound 233] | + (<20% = +) | – |
| 236 (KMSELQTYV; listed as Homo sapiens) [compound 236] | + (<20% = +) | – |
| 66 (AMFPDTIPRV; listed as Homo sapiens) [compound 66] | + (<20% = +) | – |
